According to ChEMBL document CHEMBL3045177, “The effect of ascorbic acid supplementation on brain oxidative events in experimental diabetes” (Med Chem Res, 2010):

Tests used:
[1] = test system: Rattus norvegicus; experiment: Neurotoxicity in Rattus norvegicus Wistar albino (rat) assessed as increase in brain total nitric oxide level measured per gram of tissue at 20 mg/kg, administered as intragastrically after 21 days by Griess assay (reference value: 144.8 +/- 16.3 umol); assay type: toxicity, organism-based; set-up: dose 20 mg/kg, route intragastric; details: in vivo, po, 504 h
[2] = test system: Rattus norvegicus; experiment: Neurotoxicity in Rattus norvegicus Wistar albino (rat) assessed as increase in brain ascorbic acid level measured per gram of tissue at 20 mg/kg, administered as intragastrically after 21 days by spectrphotometric analysis (reference value: 3.7 +/- 0.7 mg); assay type: toxicity, organism-based; set-up: dose 20 mg/kg, route intragastric; details: in vivo, po, 504 h
[3] = test system: Rattus norvegicus; experiment: Neurotoxicity in Rattus norvegicus Wistar albino (rat) assessed as increase in brain glutathione level measured per gram of tissue at 20 mg/kg, administered as intragastrically after 21 days by Ellman's method (reference value: 3.5 +/- 1.0 umol); assay type: toxicity, organism-based; set-up: dose 20 mg/kg, route intragastric; details: in vivo, po, 504 h
[4] = test system: Rattus norvegicus; experiment: Neurotoxicity in Rattus norvegicus Wistar albino (rat) assessed as increase in brain malondialdehyde level measured per gram of tissue at 20 mg/kg, administered as intragastrically after 21 days by TBARS assay (reference value: 233.9 +/- 48.6 nmol); assay type: toxicity, organism-based; set-up: dose 20 mg/kg, route intragastric; details: in vivo, po, 504 h
[5] = test system: Rattus norvegicus; experiment: Neuroprotective activity in streptozotocin-induced Rattus norvegicus Wistar albino (rat) diabetic model assessed as increase in brain total nitric oxide level measured per gram of tissue at 20 mg/kg, administered as intragastrically after 21 days by Griess assay (reference value: 100.6 +/- 10.7 umol); assay type: functional; details: route intragastric
[6] = test system: Rattus norvegicus; experiment: Neuroprotective activity in streptozotocin-induced Rattus norvegicus Wistar albino (rat) diabetic model assessed as increase in brain ascorbic acid level measured per gram of tissue at 20 mg/kg, administered as intragastrically after 21 days by spectrphotometric analysis (reference value: 3.7 +/- 0.4 mg); assay type: functional; details: route intragastric
[7] = test system: Rattus norvegicus; experiment: Neuroprotective activity in streptozotocin-induced Rattus norvegicus Wistar albino (rat) diabetic model assessed as increase in brain glutathione level measured per gram of tissue at 20 mg/kg, administered as intragastrically after 21 days by Ellman's method (reference value: 3 +/- 0.5 umol); assay type: functional; details: route intragastric
[8] = test system: Rattus norvegicus; experiment: Neuroprotective activity in streptozotocin-induced Rattus norvegicus Wistar albino (rat) diabetic model assessed as decrease in brain malondialdehyde level measured per gram of tissue at 20 mg/kg, administered as intragastrically after 21 days by TBARS assay (reference value: 447 +/- 61.9 nmol); assay type: functional; details: route intragastric

O=C1O[C@H]([C@@H](O)CO)C(O)=C1O [ASCORBIC ACID]
Activity [1]: 115.2 µmol
Activity [2]: 5.2 mg
Activity [3]: 5.4 µmol
Activity [4]: 249.2 nmol
Activity [5]: 146.1 µmol
Activity [6]: 4.26 mg
Activity [7]: 3.1 µmol
Activity [8]: 204.2 nmol
